Data: patent publication US7659251B2, “Ligand for G-protein coupled receptor FPRL2” (priority 2004, dated 2010)

Experiments:
FPR [1] = target: T1, FPR (Homo sapiens, UniProt P21462, E346A/V101L); assay: Aequorin-based assay on CHO-K1 cells expressing FPR; type: cell-based
T1 construct: expressed in transfected cells; host or cells: CHO-K1 (with or without Galpha16 and apoaequorin)
T1 sequence (P21462 1-350 V101L/E346A): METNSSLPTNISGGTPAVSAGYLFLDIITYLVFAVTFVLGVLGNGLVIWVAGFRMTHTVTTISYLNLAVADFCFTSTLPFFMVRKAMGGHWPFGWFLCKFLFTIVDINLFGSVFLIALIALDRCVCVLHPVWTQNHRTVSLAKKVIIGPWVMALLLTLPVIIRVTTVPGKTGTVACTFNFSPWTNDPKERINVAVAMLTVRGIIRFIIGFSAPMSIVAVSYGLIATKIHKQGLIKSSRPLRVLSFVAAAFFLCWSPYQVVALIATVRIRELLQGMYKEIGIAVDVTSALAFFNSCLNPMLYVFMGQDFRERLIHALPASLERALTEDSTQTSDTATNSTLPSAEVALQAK
Source text: The human coding sequences (accession numbers AC005946, M84562 and M60626, respectively) were amplified by PCR from human genomic DNA, cloned into the pcDNA3 (Invitrogen) and pEFIN3 (Euroscreen) vectors and sequenced. The pEFIN3 constructs were transfected, using Fugene 6, into CHO-K1 cells, expressing or not Gα16 and apoaequorin. G418-resistant clones were characterized for receptor expression by Northern blotting. […] Results were expressed as relative light units (RLU) or as the percentage of the response to 20 μM ATP.

FPR [2] = target: T1, FPR; assay: Competition binding on FPR-expressing CHO-K1 cells, tracer [125I]-WKYMVm
Method: FPRL2, FPRL1 and FPR-expressing CHO-K1 cells were plated in 24 wells plates (200,000 cells per well for FPRL2, and 100,000 cells per well for the two other receptors). The next day, the cells were washed twice with a KRH buffer containing 280 mM saccharose and, for FPRL1 and FPR, 0.1 % NaN3. […] Cells were washed twice with ice cold buffer, total radioactivity was recovered with 1 M […] and counted in a gamma counter for […]

ERK1/2 MAP-kinases = assay: ERK1/2 activation by Western blotting in FPRL2-expressing CHO-K1 cells; type: cell-based, human
Method: (§1) The cAMP concentrations were determined using a homogeneous time-resolved fluorescence (HTRF) kit (Cis Bio International). Briefly, cells were detached, resuspended in Krebs Ringer Hepes buffer containing 1 mM 3-Isobutyl-1-methylxanthine, and submitted to 10 μM forskolin, alone or together with increasing concentrations of agonists for 30 min at room temperature. The reaction was stopped by the successive addition of cAMP-XL665 and anti-cAMP cryptate diluted in lysis buffer. The plates were incubated for 60 min at room temperature and read on a Rubystar fluorimeter (BMG). […] A calibration curve was obtained by plotting delta F % versus cAMP concentrations. ERK1/2 activation was assayed by Western blotting, using an anti-phospho-p42/44 monoclonal antibody (E10, Cell Signaling Technology) as described (46). The aequorin-based assay was performed with or without overnight pretreatment with 100 ng/ml Pertussis toxin. […] For FPRL2 polymorphism analysis, HEK cells were transiently transfected with empty and wild-type or Asp338H is FPRL2-containing pcdna vector using calcium phosphate method. Cells were recovered 48 hours later and used for FACS or cAMP experiments.

FPRL2 [3] = target: T2, FPRL2 (Homo sapiens, UniProt P25089); assay: cAMP accumulation assay (HTRF, forskolin) on FPRL2-expressing CHO-K1 cells; type: cell-based; set-up: expressed in transfected cells; host or cells: CHO-K1; settings: CHO-K1 cells expressing FPRL2 but not G alpha 16; without forskolin
T2 sequence (P25089 1-353): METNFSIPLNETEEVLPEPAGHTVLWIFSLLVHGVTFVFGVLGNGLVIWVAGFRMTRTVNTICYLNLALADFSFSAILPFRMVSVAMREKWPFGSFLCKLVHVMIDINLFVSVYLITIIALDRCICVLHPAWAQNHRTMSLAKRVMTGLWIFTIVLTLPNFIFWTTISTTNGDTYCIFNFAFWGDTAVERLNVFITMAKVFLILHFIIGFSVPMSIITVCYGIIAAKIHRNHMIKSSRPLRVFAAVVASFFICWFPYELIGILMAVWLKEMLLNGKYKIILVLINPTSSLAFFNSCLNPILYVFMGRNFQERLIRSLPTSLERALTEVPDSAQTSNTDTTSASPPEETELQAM
Method: as §1, with “Briefly, cells were detached, resuspended in Krebs Ringer Hepes buffer containing 1 mM 3-Isobutyl-1-methylxanthine, and submitted to 10 μM forskolin, alone or together with increasing concentrations of agonists for 30 min at room temperature.” left out, “ERK1/2 activation was assayed by Western blotting, using an anti-phospho-p42/44 monoclonal antibody (E10, Cell Signaling Technology) as described (46).” left out

FPRL2 [4] = target: T2, FPRL2; assay: Aequorine assay on human FPRL2 expressing cells (Example 9); type: cell-based; set-up: expressed in transfected cells; host or cells: CHO-K1 (with or without Galpha16 and apoaequorin); settings: peptides 2.5 μM to 0.4 nM, Mab 500 ug/ml to 5 ug/ml; FIG. 15
Method: Functional responses were analyzed by recording the luminescence of aequorine in human FPRL2 and FPRL1 expressing cells following the addition of agonists or purified monoclonal antibodies.
In brief, cells were collected from plates with PBS containing 5 mM EDTA, pelleted, resuspend at 5×10^6 cells/ml in DMEM/F-12 medium containing 0.1% bovine serum albumin, incubated with 5 μM coelenterazine H (molecular probes, Inc. Eugene, Oreg.) for 4 h at room temperature and diluted in DMEM/F-12 medium at a concentration of 5×10^5 cells/ml. Cells where then mixed in an 96 wells plate with the ligands or purified monoclonal antibodies. The light emission was recorded over 60 sec using a microlumat Luminometer (EG&G Berthold, microplate luminometer LB 96V).
Each data point is in duplicate. […] Human FPRL1 expressing cells were used as negative control to Mab. Functionality of these cells has been control with Humanin.

`CC[C@H](C)[C@H](NC(=O)[C@H](CCSC)NC(=O)CNC(=O)[C@H](CC(C)C)NC(=O)[C@H](CCSC)NC(C)=O)C(=O)N[C@@H](CCCCN)C(=O)N[C@@H](CC(N)=O)C(=O)N[C@@H](CO)C(=O)N[C@@H](CC(C)C)C(=O)N[C@@H](Cc1ccccc1)C(=O)NCC(=O)N[C@@H](CO)C(=O)N[C@H](C(=O)N[C@@H](CCC(=O)O)C(=O)N[C@H](C(=O)N[C@@H](Cc1c[nH]c2ccccc12)C(=O)N1CCC[C@H]1C(=O)N[C@@H](Cc1c[nH]c2ccccc12)C(=O)N[C@@H](CCC(N)=O)C(=O)N[C@H](C(=O)N[C@@H](CC(C)C)C(=O)O)C(C)C)[C@@H](C)O)C(C)C` [F2L] was tested, and the “activation of FPR” value (FPR [1]; FIG. 6) was “not able to activate”, the EC50 (FPR [1]; FPR, −Log of EC50 in Mol/L, mean ± s.e.m., read-out: pEC50 (sequorin assay) (converted)) was over 1000 nM and the “activity in the aequorin assay on FPR” value (FPR [1]; up to 5 μM) was “no activity was detected”. For the same compound, the IC50 (FPR [2]; FPR, −Log of IC50 in Mol/L, mean ± s.e.m., read-out: pIC50 (binding assay) (converted)) was over 1000 nM, the “competition for FPR binding” value (FPR [2]; up to concentrations of 3 μM, tracer [125I]WKYMVm) was “no competition” and the “time of maximal ERK1/2 phosphorylation” value (ERK1/2 MAP-kinases; 100 nM F2L, FIG. 11J) was 15 min. The “concentrations inducing phosphorylation of the ERK1/2 MAP-kinases” value (ERK1/2 MAP-kinases; stimulation for 10 min, FIG. 11I) was “picomolar concentrations”, the “stimulation of cAMP production by itself” value (FPRL2 [3]) was “unable to stimulate cAMP production” and the “activation of human FPRL2 expressing cells” value (FPRL2 [4]) was “activates”.
